Source: PubChem BioAssay (NCI)
“And” between values parts separate entries of the source, which are not always exact repeats. Identical values can stand only once.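 Protocol summary: plate cells (96-well), add compound at 5 concentrations, incubate 48 h, interpolate endpoints linearly. Here, GI50 denotes the concentration required for 50% inhibition of growth. TGI marks complete inhibition of growth.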

How the values were obtained:
Test in all cases: inhibition of tumour cell growth, NCI panel, 48 h
EKVX NSCLC = test system: EKVX NSCLC
786-0 renal = test system: 786-0 renal
UACC-62 melanoma = test system: UACC-62 melanoma
MOLT-4 leukemia = test system: MOLT-4 leukemia
K-562 leukemia = test system: K-562 leukemia
M14 melanoma = test system: M14 melanoma
COLO 205 colon = test system: COLO 205 colon
SN12C renal = test system: SN12C renal
CCRF-CEM leukemia = test system: CCRF-CEM leukemia
HOP-92 NSCLC = test system: HOP-92 NSCLC

| Compound | GI50 (EKVX NSCLC) | TGI (EKVX NSCLC) | GI50 (786-0 renal) | TGI (786-0 renal) | GI50 (UACC-62 melanoma) | TGI (UACC-62 melanoma) | GI50 (MOLT-4 leukemia) | TGI (MOLT-4 leukemia) | GI50 (K-562 leukemia) | TGI (K-562 leukemia) | GI50 (M14 melanoma) | TGI (M14 melanoma) | GI50 (COLO 205 colon) | TGI (COLO 205 colon) | GI50 (SN12C renal) | TGI (SN12C renal) | GI50 (CCRF-CEM leukemia) | TGI (CCRF-CEM leukemia) | GI50 (HOP-92 NSCLC) | TGI (HOP-92 NSCLC) |
| --- | --- | --- | --- | --- | --- | --- | --- | --- | --- | --- | --- | --- | --- | --- | --- | --- | --- | --- | --- | --- |
| COC(=O)CCC/C=C\C[C@H]1C=CC(=O)/C1=C/C[C@@H](O)CCc1cccc(C(F)(F)F)c1 | 4.52 µM | 16.4 µM | 2.46 µM | 5.57 µM | 2.16 µM | 5.48 µM | 2.29 µM | 6.46 µM | 2.23 µM | 7.98 µM | 2.1 µM | 6.07 µM | 2.39 µM | 5.85 µM | 4.2 µM | 16.9 µM | 1.09 µM | 12 µM | 3.1 µM | 7.94 µM |
| COc1cc(-c2cnn(C)c2)ccc1Nc1ncc2ccnc(N[C@@H](C)C(C)(C)C)c2n1 | > 100 µM | > 100 µM | > 31.6 µM | > 100 µM | > 100 µM | > 100 µM | > 69 µM | > 100 µM | > 72.8 µM | > 100 µM | > 63.8 µM | > 100 µM | 1.81 µM | > 100 µM | > 100 µM | > 100 µM | > 100 µM | > 100 µM | > 56.7 µM | > 100 µM |
| CC(=O)Oc1cc(C)ccc1[C@]1(C)CC[C@H](C)/C1=C\Br | 6.67 µM | 18.5 µM | 4.09 µM | 14.3 µM | 5.98 µM | 19.7 µM | 5.22 µM | 22.8 µM | 3.71 µM | 11.4 µM | 6.31 µM | 19.6 µM | 2.3 µM | 5.33 µM | 9.24 µM | 25.3 µM | 2.75 µM | 10.1 µM | 2.03 µM | 12.9 µM |
| CC(=O)OCC1OC(n2c(-c3ccccc3)cc(-c3ccco3)c(C#N)c2=O)C(OC(C)=O)C(OC(C)=O)C1OC(C)=O (stereo unspecified) |  | > 100 µM |  | > 100 µM | 23.3 µM and 55.8 µM | > 100 µM |  | > 100 µM | > 68.8 µM and 9.04 µM | > 100 µM | > 100 µM | > 100 µM | > 31.6 µM and 87 µM | > 100 µM | 77.2 µM and 23.5 µM | > 100 µM |  | > 100 µM | 9.2 µM and 50.8 µM | 21.8 µM and > 100 µM |
| COc1cc2c(cc1C)NC(=O)/C2=C\c1cc(OC)c(OC)c(OC)c1 | > 100 µM | > 100 µM | 32.4 µM | > 100 µM | 37.3 µM | > 100 µM | 12.5 µM | 38.8 µM | 23.2 µM | 70.1 µM | > 100 µM | > 100 µM | > 100 µM | > 100 µM | > 100 µM | > 100 µM | 8.18 µM | 32.1 µM | 10.4 µM | 30.6 µM |
| Nc1c(C(=O)c2ccccc2)sc2nc(-c3cccs3)ccc12 | 0.285 µM | 17.5 µM | 0.725 µM | 7.67 µM | 0.0788 µM | 10.4 µM | 0.0504 µM | 1.12 µM | 0.0467 µM | 20.5 µM | 0.0924 µM | 13.3 µM | 0.426 µM | 4.65 µM | 0.692 µM | 27.4 µM | 0.524 µM | > 100 µM | 0.486 µM | 7.31 µM |
| CCCCCCNC(=O)C1=C(C)NC(C)=C(C(=O)NCCCCCC)C1 |  | > 100 µM |  | > 100 µM |  | > 100 µM |  | > 100 µM |  | > 100 µM |  | > 100 µM |  | > 100 µM |  | > 100 µM |  | > 100 µM |  | > 100 µM |
| O=C(Nc1ccc(Cl)cc1)Nc1ccc(Cl)c(Cl)c1 | 3.41 µM | > 100 µM | 4.43 µM | > 100 µM | 5.59 µM | > 100 µM | 2.65 µM | > 100 µM | 2.63 µM | > 100 µM | 4.71 µM | > 100 µM | 1.85 µM | 3.42 µM | 3.42 µM | > 100 µM | 2.25 µM | 7.8 µM | 1.62 µM | 5.46 µM |
| CC1CC(c2ccccc2)=Nc2ccccc2S1(=O)=O (stereo unspecified) |  | 39.6 µM |  | 30.9 µM |  | 55.7 µM |  | 33.3 µM |  | 41.9 µM |  | 40.9 µM |  | 40.9 µM |  | 34.3 µM |  | 43.4 µM |  | 48.7 µM |
| COc1cc2c(cc1OCc1ccccc1)N=C[C@@H]1C/C(=C/C(=O)NCCCN3C(=O)c4cccc5cccc(c45)C3=O)CN1C2=O | 1.75 µM | 6.17 µM | 0.423 µM | 11 µM | 0.599 µM | 2.55 µM | 0.0553 µM | 63.9 µM | 0.424 µM | > 100 µM | 2.17 µM | 6.92 µM | 1.56 µM | 4.81 µM | 0.346 µM | 2.4 µM | 0.0548 µM | > 100 µM | 0.724 µM | 4.76 µM |
| CC(=O)N/C(=C\c1ccc(/C=C(\NC(C)=O)c2nc3ccc(Cl)cc3[nH]2)cc1)c1nc2ccccc2[nH]1 |  | > 100 µM |  | > 100 µM |  | > 100 µM |  | > 100 µM |  | > 100 µM |  | > 100 µM |  | > 100 µM |  | > 100 µM |  | > 100 µM |  | > 100 µM |
| C=CC(=O)N1CCCC(n2nc(-c3ccc(Oc4ccccc4)cc3)c3c(N)ncnc32)C1 (stereo unspecified) | 0.164 µM | 6.65 µM | 1.86 µM | 16.6 µM | 2.36 µM | 14.6 µM | 4.28 µM | 25.8 µM | 4.13 µM | 24.4 µM | 7.59 µM | 21.4 µM | 14.1 µM | 28.5 µM | 2.3 µM | 16.1 µM | 8.02 µM | 42.6 µM | 1.57 µM | 10.5 µM |
| CCCCCCC/C=C/[C@H]1O[C@]23C(=O)C[C@@]4(C[C@@H](OC5OC(CO)C(O)C(O)C5O)C[C@@H]4[C@H]2C=C1C)OC3=O (stereo partly specified) | 6.72 µM | 17.8 µM | 4.9 µM | 10.1 µM | 4.47 µM | 10.9 µM | 1.31 µM | 14.4 µM | 2.2 µM | 18.5 µM | 3.58 µM | 8.43 µM | 7.1 µM | 17.8 µM | 5.46 µM | 14.9 µM | 1.19 µM | > 33.3 µM | 3.77 µM | 11.6 µM |
| O=C(C(O)c1cn(Cc2ccccc2)c2ccccc12)N1CCCCC1 (stereo unspecified) |  | > 100 µM |  | > 100 µM |  | > 100 µM |  | > 100 µM |  | > 100 µM |  | > 100 µM |  | > 100 µM |  | > 100 µM |  | > 100 µM |  | > 100 µM |
| O=C(O)C1CCc2ccc3ccccc3c2C1c1cccc2ccccc12 (stereo unspecified) |  | 85.8 µM |  | 38.2 µM |  | 29.4 µM |  | 48.7 µM |  | > 100 µM |  | 38.9 µM |  | 77.7 µM |  | 59.3 µM |  | 50.7 µM |  | 38.6 µM |
| NC(=O)c1c[se]c(C2OC(CO)C(O)C2O)n1 (stereo unspecified) |  | > 100 µM |  | > 100 µM |  | > 100 µM |  | > 49 µM |  | > 100 µM |  | > 100 µM |  | > 100 µM |  | > 100 µM |  | > 100 µM |  | > 100 µM |
